# The source made the active and inactive calls. The calls are words filed in the database; no cut-off is given here.
# System: not listed separately
# Test: Inhibition of hedgehog signaling pathway in mouse NIH/3T3 cells measured after 24 hrs by Gli-dual luciferase reporter gene assay
# Type: cell-based
# Conditions: NIH3T3, 24 h
row,SMILES,IC50
1,O=c1c2cccc(-c3ccc(OC(F)(F)F)cc3)c2ncn1-c1ccc(N2CCOCC2)cc1,4520 nM
2,C[C@@H]1CN(c2ccc(N3Cc4c(cccc4-c4ccc(F)cc4F)C3=O)cn2)C[C@H](C)O1,1710 nM
3,C[C@@H]1CN(c2ccc(-n3cnc4c(-c5cccc6ccccc56)cccc4c3=O)cn2)C[C@H](C)O1,439 nM
4,CS(=O)(=O)c1ccc(C(=O)Nc2ccc(Cl)c(-c3ccccn3)c2)c(Cl)c1 [VISMODEGIB],5 nM
5,C[C@@H]1CN(c2ccc(-n3cnc4c(-c5ccc(OC(F)(F)F)cc5)cccc4c3=O)cn2)C[C@H](C)O1,159 nM
6,COc1cccc(-c2cccc3c(=O)n(-c4ccc(N5CCOCC5)cc4)cnc23)c1,433 nM
7,O=c1c2cccc(-c3ccc(OC(F)(F)F)cc3)c2ncn1-c1ccc(N2CCOCC2)nc1,5410 nM
8,C[C@@H]1CN(c2ccc(N3Cc4c(cccc4-c4ccc(OC(F)(F)F)cc4)C3=O)cn2)C[C@H](C)O1,1800 nM
9,Cc1c(C(=O)Nc2ccc(N3C[C@@H](C)O[C@@H](C)C3)nc2)cccc1-c1ccc(OC(F)(F)F)cc1 [SONIDEGIB],6 nM
10,C[C@@H]1CN(c2cc(-n3cnc4c(-c5ccc(OC(F)(F)F)cc5)cccc4c3=O)ncn2)C[C@H](C)O1,44200 nM
11,C[C@@H]1CN(c2ccc(-n3cnc4c(-c5ccc(OC(F)(F)F)cc5)cccc4c3=O)nc2)C[C@H](C)O1,196 nM
12,O=c1c2cccc(-c3ccc(OC(F)(F)F)cc3)c2ncn1CCN1CCOCC1,6600 nM
13,Cc1ccc(-c2cccc3c(=O)n(-c4ccc(N5C[C@@H](C)O[C@@H](C)C5)nc4)cnc23)cc1,305 nM

# System: NIH3T3
# Test: Cytotoxicity against mouse NIH/3T3 cells assessed as cell viability by MTS assay
# Type: cell-based
# Conditions: not given
row,SMILES,Activity
1,O=c1c2cccc(-c3ccc(OC(F)(F)F)cc3)c2ncn1-c1ccc(N2CCOCC2)cc1,> 20 µM
2,C[C@@H]1CN(c2ccc(N3Cc4c(cccc4-c4ccc(F)cc4F)C3=O)cn2)C[C@H](C)O1,> 20 µM
3,C[C@@H]1CN(c2ccc(-n3cnc4c(-c5cccc6ccccc56)cccc4c3=O)cn2)C[C@H](C)O1,> 20 µM
4,C[C@@H]1CN(c2ccc(-n3cnc4c(-c5ccc(OC(F)(F)F)cc5)cccc4c3=O)cn2)C[C@H](C)O1,> 20 µM
5,COc1cccc(-c2cccc3c(=O)n(-c4ccc(N5CCOCC5)cc4)cnc23)c1,> 20 µM
6,O=c1c2cccc(-c3ccc(OC(F)(F)F)cc3)c2ncn1-c1ccc(N2CCOCC2)nc1,> 20 µM
7,C[C@@H]1CN(c2ccc(N3Cc4c(cccc4-c4ccc(OC(F)(F)F)cc4)C3=O)cn2)C[C@H](C)O1,> 20 µM
8,Cc1c(C(=O)Nc2ccc(N3C[C@@H](C)O[C@@H](C)C3)nc2)cccc1-c1ccc(OC(F)(F)F)cc1 [SONIDEGIB],> 20 µM
9,C[C@@H]1CN(c2cc(-n3cnc4c(-c5ccc(OC(F)(F)F)cc5)cccc4c3=O)ncn2)C[C@H](C)O1,> 20 µM
10,C[C@@H]1CN(c2ccc(-n3cnc4c(-c5ccc(OC(F)(F)F)cc5)cccc4c3=O)nc2)C[C@H](C)O1,> 20 µM
11,O=c1c2cccc(-c3ccc(OC(F)(F)F)cc3)c2ncn1CCN1CCOCC1,> 20 µM
12,Cc1ccc(-c2cccc3c(=O)n(-c4ccc(N5C[C@@H](C)O[C@@H](C)C5)nc4)cnc23)cc1,> 20 µM

# System: not listed separately
# Test: Metabolic stability in human liver microsomes assessed as compound remaining at 1 uM preincubated for 5 mins followed by NADPH addition measured after 30 mins by LC-ESI/MS/MS analysis relative to control
# Type: ADME, microsome
# Conditions: read-out: Stability
row,SMILES,"remaining at 0.5 h, 1 µM"
1,O=C1CC2(CCCC2)CC(=O)N1CCCCN1CCN(c2ncccn2)CC1 [BUSPIRONE],5.17%
2,Cc1c(C(=O)Nc2ccc(N3C[C@@H](C)O[C@@H](C)C3)nc2)cccc1-c1ccc(OC(F)(F)F)cc1 [SONIDEGIB],68%

# System: not listed separately
# Test: Metabolic stability in human liver microsomes assessed as compound remaining at 1 uM in absence of NADPH incubated for 5 mins by LC-ESI/MS/MS analysis relative to control
# Type: ADME, microsome
# Conditions: read-out: Stability
row,SMILES,"remaining at 5 min, 1 µM"
1,O=C1CC2(CCCC2)CC(=O)N1CCCCN1CCN(c2ncccn2)CC1 [BUSPIRONE],96.7%
2,Cc1c(C(=O)Nc2ccc(N3C[C@@H](C)O[C@@H](C)C3)nc2)cccc1-c1ccc(OC(F)(F)F)cc1 [SONIDEGIB],99.7%

# System: not listed separately
# Test: Metabolic stability in human liver microsomes assessed as compound remaining at 1 uM preincubated for 5 mins followed by UDPGA addition measured after 30 mins by LC-ESI/MS/MS analysis relative to control
# Type: ADME, microsome
# Conditions: read-out: Stability
row,SMILES,"remaining at 0.5 h, 1 µM"
1,Cc1cc(=O)oc2cc(O)ccc12 [HYMECROMONE],0.46%
2,Cc1c(C(=O)Nc2ccc(N3C[C@@H](C)O[C@@H](C)C3)nc2)cccc1-c1ccc(OC(F)(F)F)cc1 [SONIDEGIB],88.4%

# System: not listed separately
# Test: Metabolic stability in human liver microsomes assessed as compound remaining at 1 uM in absence of UDPGA incubated for 5 mins by LC-ESI/MS/MS analysis relative to control
# Type: ADME, microsome
# Conditions: read-out: Stability
row,SMILES,"remaining at 5 min, 1 µM"
1,Cc1cc(=O)oc2cc(O)ccc12 [HYMECROMONE],92.2%
2,Cc1c(C(=O)Nc2ccc(N3C[C@@H](C)O[C@@H](C)C3)nc2)cccc1-c1ccc(OC(F)(F)F)cc1 [SONIDEGIB],89.5%

# Species: Mus musculus
# Test: Inhibition of hedgehog signaling pathway in mouse NIH/3T3 cells assessed as inhibition of hedgehog-induced Smo-EGFP ciliary translocation by DAPI staining based confocal microscopic analysis
# Type: cell-based
# Conditions: not given
row,SMILES,inhibition
1,CS(=O)(=O)c1ccc(C(=O)Nc2ccc(Cl)c(-c3ccccn3)c2)c(Cl)c1 [VISMODEGIB],Active
2,Cc1c(C(=O)Nc2ccc(N3C[C@@H](C)O[C@@H](C)C3)nc2)cccc1-c1ccc(OC(F)(F)F)cc1 [SONIDEGIB],Active

# Species: Mus musculus
# Test: Inhibition of hedgehog signaling pathway expressed in mouse NIH/3T3 cells assessed as inhibition of hedgehog-induced Gli-2 accumulation at tip of primary cilia by DAPI staining based confocal microscopic analysis
# Type: cell-based
# Conditions: not given
row,SMILES,inhibition
1,CS(=O)(=O)c1ccc(C(=O)Nc2ccc(Cl)c(-c3ccccn3)c2)c(Cl)c1 [VISMODEGIB],Active
2,Cc1c(C(=O)Nc2ccc(N3C[C@@H](C)O[C@@H](C)C3)nc2)cccc1-c1ccc(OC(F)(F)F)cc1 [SONIDEGIB],Active

# System: not listed separately
# Test: Inhibition of hedgehog signaling pathway in mouse NIH/3T3 cells expressing wild type Smo assessed as reduction in Gli mRNA expression by RT-PCR method
# Type: cell-based
# Conditions: NIH3T3
row,SMILES,IC50
1,CS(=O)(=O)c1ccc(C(=O)Nc2ccc(Cl)c(-c3ccccn3)c2)c(Cl)c1 [VISMODEGIB],14.4 nM
2,Cc1c(C(=O)Nc2ccc(N3C[C@@H](C)O[C@@H](C)C3)nc2)cccc1-c1ccc(OC(F)(F)F)cc1 [SONIDEGIB],4.4 nM

# System: not listed separately
# Test: Inhibition of hedgehog signaling pathway in mouse NIH/3T3 cells harboring Smo D477H mutant assessed as reduction in Gli mRNA expression by RT-PCR method
# Type: cell-based
# Conditions: NIH3T3
row,SMILES,IC50
1,CS(=O)(=O)c1ccc(C(=O)Nc2ccc(Cl)c(-c3ccccn3)c2)c(Cl)c1 [VISMODEGIB],1200 nM
2,Cc1c(C(=O)Nc2ccc(N3C[C@@H](C)O[C@@H](C)C3)nc2)cccc1-c1ccc(OC(F)(F)F)cc1 [SONIDEGIB],22.7 nM

# Species: Mus musculus
# Test: Selectivity ratio of IC50 for hedgehog signaling pathway in mouse NIH/3T3 cells harboring Smo D477H mutant to IC50 for hedgehog signaling pathway in mouse NIH/3T3 cells expressing wild type Smo
# Type: cell-based
# Conditions: not given
row,SMILES,Ratio IC50
1,CS(=O)(=O)c1ccc(C(=O)Nc2ccc(Cl)c(-c3ccccn3)c2)c(Cl)c1 [VISMODEGIB],82.7
2,Cc1c(C(=O)Nc2ccc(N3C[C@@H](C)O[C@@H](C)C3)nc2)cccc1-c1ccc(OC(F)(F)F)cc1 [SONIDEGIB],5.16

# Source: ChEMBL document CHEMBL4041510, “Design, synthesis, and biological evaluation of structurally modified isoindolinone and quinazolinone derivatives as hedgehog pathway inhibitors” (Eur J Med Chem, 2017)
